Experimental data as given in patent publication US4853221A, “Method for treating non-small cell lung cancer, head and neck cancers and breast cancer” (Warner-Lambert Company, priority 1987, dated 1989).

What was measured:
L1210 = test: Antitumor activity against L1210 leukemia in mice; assay type: in vivo, mouse; details: for Life Span % ILS / Life Span % T/C: ip daily, Days 1-9
Method: (§1) The growth inhibition properties of 5-methyl-6-[[(3,4,5-trimethoxyphenyl)amino]methyl]-2,4-quinazolinediamine (trimetrexate) against several transplanted murine tumors were evaluated employing the antitumor screening program of the Drug Evaluation Branch of the National Cancer Institute. The protocols for these tests is described in Cancer Chemotherapy Reports, 3: 1-103 (1972). The dosing schedules are results from these tests appear in Table IV.
In the L1210, P388, and B-16 melanoma models, results are expressed as a percentage of median control survival time. Percentage of increase in survival time and/or cures (30 day survivors) were the parameters used to measure the effectiveness of the agents. An initial median survival value for treated over control percentage (% T/C) equal to or greater than 125% was considered indicative of activity. For confirmatory activity, two multidose assays must show % T/C values equal to or greater than 150%.
(§2) Percent increase in median life span (% ILS) values appearing in the tables were calculated from the formula; 100×(median life span in days of treated mice minus median life span in days of untreated mice) divided by median life span in days of untreated control mice. That is, % ILS=[100×(T-C)]/C. % T/C and %ILS are directly interconvertible by the formula % ILS=% T/C -100.
L1210 Leukemic Cells (10^5 /mouse) and P388 leukemic cells (10^6 /mouse)were in the ascites form and were transferred to BD2F1 or CD2F1 mice by intraperitoneal (ip) injection of 0.1 ml of cells taken from animals bearing 6- to 7-day old tumors. Leukemic cells were injected ip one day prior to the start of treatment.
(§3) In all of the mouse tumor studies described above, routine controls consisted of matching ten normal mice (with no tumors) to each tumor-bearing treatment group and injecting them with the same drug at the same dosages, schedules, days of administration, and drug route as the tumor-bearing mice. In this way, drug-induced toxicity (lethality and weight loss) could be clearly separated from the effects of the drug on the tumors.

Sarcoma-180 = test: Inhibition of Sarcoma-180 cell growth in vitro; assay type: cell-based; details: Mus musculus, 48 h; Murine Sarcoma-180; read-out: ED50 (the source's name)
Method: Two leukemia cell lines (L1210 and L5178Y) and two solid tumor cell lines (Sarcoma 180 and Walker 256) were used in these studies.
Logarithmically growing L1210 cells (approximately 3×10^5 cells/ml) were diluted with Fischer's medium (containing 10% horse serum) to an approximate concentration of 5×10^4 cells/ml. Cells were planted in duplicate into 15 ml culture tubes containing either no drug or various amounts of drug, and incubated for 48 hours at 37° C. before being counted.
Trimetrexate was also evaluated in a similar manner side-by-side with methotrexate for its effect on the growth of three additional murine cell lines (L5178Y, Sarcoma-180, and Walkler-256) and three human cell lines (acute myelogenous leukemia K-562, T-cell 8402, and B-cell 8392), propagated in vitro.

[1] = test system: head and neck (squamous) cancers; test: Phase I clinical trials, head and neck (squamous) cancers; assay type: in vivo, human; details: single agent
Method: Several Phase I clinical trials employing trimetrexate in human patients were carried out. In one study, 36 patients were treated with trimetrexate as a single agent at daily doses of 0.5 mg/m^2 /day to 12 mg/m^2 /day administered intravenously for five days.
In additional Phase I clinical studies, patients were administered trimetrexate with single intravenous doses ranging between 5 and 450 mg/m^2 and with weekly doses of slightly greater than 100 mg/m^2.

cells in culture = test: Concentration reached in cells in culture; assay type: cell-based; details: compared with methotrexate
Colon 26 = test: Antitumor activity against colon adenocarcinoma 26 in mice; assay type: in vivo, mouse; details: for Life Span % ILS / Life Span % T/C: ip every 4 days, Days 1-5
Method: as §1, §2
Colon adenocarcinoma Nos. 26 and 38. Colon adenocarcinoma 26 was propagated in Balb/cj mice for 12 to 15 days. After this time, 0.5 ml of a 1% tumor brei, prepared from several excised subcutaneously passaged tumors, was implanted intraperitoneally into CDF1 mice. Animals were treated with drug ip on Days 1 and 5 following tumor implantation. The median survival time of the treated animals was determined and expressed as a percentage of the median survival time of untreated control animals.
as §3

[2] = optimal dose 20 mg/kg (dose range 80-5)
[3] = optimal dose 80 mg/kg (dose range 80-5)
[4] = optimal dose 30 mg/kg (dose range 120-3.75)
[5] = optimal dose 60 mg/kg (dose range 120-3.75)

COc1cc(NCc2ccc3nc(N)nc(N)c3c2C)cc(OC)c1OC [Trimetrexate, 5-methyl-6-[[(3,4,5-trimethoxyphenyl)amino]methyl]-2,4-quinazolinediamine]
antitumor activity (L1210; mouse, in vivo): good activity
Life Span % ILS (L1210; [2]): 72%
Life Span % T/C (L1210; [2]): 172%
Life Span % ILS (L1210; [3]): 96%
Life Span % T/C (L1210; [3]): 196%
IC50 (Sarcoma-180): 18 nM
patients with favorable responses [1]: two
concentration reached in cells in culture (cells in culture): higher concentration than methotrexate
antitumor activity (Colon 26; mouse, in vivo): good activity
Life Span % ILS (Colon 26; [4]): 56%
Life Span % T/C (Colon 26; [4]): 156%
Life Span % ILS (Colon 26; [5]): 115%
Life Span % T/C (Colon 26; [5]): 215%
